Reference: ChEMBL document CHEMBL5143671, “Discovery of (R)-(3-fluoropyrrolidin-1-yl)(6-((5-(trifluoromethyl)pyridin-2-yl)oxy)quinolin-2-yl)methanone (ABBV-318) and analogs as small molecule Nav1.7/ Nav1.8 blockers for the treatment of pain” (Bioorg Med Chem, 2022)
In brackets after ≈: the same amount, converted by molar mass.

Legend:
Rattus norvegicus [1] = organism: Rattus norvegicus; assay: animal or person; settings: Sprague-Dawley
physchem [2] = settings: octanol/water
[3] = biological target: Voltage-gated inwardly rectifying potassium channel KCNH2 (Homo sapiens, UniProt Q12809);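 also: hERG channel blockade measured by electrophysiology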
Voltage-gated inwardly rectifying potassium channel KCNH2, sequence (Q12809 whole entry): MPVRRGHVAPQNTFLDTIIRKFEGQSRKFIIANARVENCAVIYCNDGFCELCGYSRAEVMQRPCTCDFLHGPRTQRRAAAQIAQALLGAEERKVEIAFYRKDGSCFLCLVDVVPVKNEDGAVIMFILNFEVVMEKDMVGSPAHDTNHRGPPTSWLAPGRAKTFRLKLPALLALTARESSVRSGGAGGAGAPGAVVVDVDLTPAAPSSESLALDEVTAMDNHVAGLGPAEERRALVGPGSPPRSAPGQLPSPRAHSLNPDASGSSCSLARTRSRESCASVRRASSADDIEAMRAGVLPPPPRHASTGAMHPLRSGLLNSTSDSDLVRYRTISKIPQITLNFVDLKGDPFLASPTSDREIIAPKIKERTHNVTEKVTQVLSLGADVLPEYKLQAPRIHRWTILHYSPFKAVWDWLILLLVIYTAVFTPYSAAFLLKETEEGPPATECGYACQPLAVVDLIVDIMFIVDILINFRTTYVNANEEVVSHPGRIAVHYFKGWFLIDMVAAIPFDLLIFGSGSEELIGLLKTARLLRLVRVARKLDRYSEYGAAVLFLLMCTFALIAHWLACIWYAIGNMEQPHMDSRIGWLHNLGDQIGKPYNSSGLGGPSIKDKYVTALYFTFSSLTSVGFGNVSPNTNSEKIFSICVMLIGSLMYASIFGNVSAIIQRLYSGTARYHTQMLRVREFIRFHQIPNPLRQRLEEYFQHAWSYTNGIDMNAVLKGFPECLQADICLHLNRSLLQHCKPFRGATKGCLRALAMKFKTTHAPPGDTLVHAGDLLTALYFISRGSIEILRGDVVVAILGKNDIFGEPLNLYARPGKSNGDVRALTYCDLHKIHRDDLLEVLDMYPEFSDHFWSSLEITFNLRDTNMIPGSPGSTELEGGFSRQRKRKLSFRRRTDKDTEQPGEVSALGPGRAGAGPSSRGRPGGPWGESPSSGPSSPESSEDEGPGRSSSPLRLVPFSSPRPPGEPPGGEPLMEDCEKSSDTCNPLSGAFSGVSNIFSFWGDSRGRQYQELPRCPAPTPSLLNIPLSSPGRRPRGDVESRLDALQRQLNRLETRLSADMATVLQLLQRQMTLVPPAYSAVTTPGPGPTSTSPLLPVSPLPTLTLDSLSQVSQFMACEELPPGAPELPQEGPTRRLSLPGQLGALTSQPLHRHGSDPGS

[4] = Drug concentration in brain of monoiodoacetate-induced Sprague-Dawley rat model of osteoarthritis at 30 mg/kg, po administered for 5 days and measured after 15 mins; type: ADME, organism-based; settings: time 5 day, read-out: Ct
[5] = biological target: Sodium channel protein type 2 subunit alpha (Homo sapiens, UniProt Q99250); assay: Inhibition of recombinant human Nav1.2 expressed in HEK293 cells incubated for 3 mins by FRET based membrane potential assay; type: cell-based
Sodium channel protein type 2 subunit alpha, sequence (Q99250 whole entry): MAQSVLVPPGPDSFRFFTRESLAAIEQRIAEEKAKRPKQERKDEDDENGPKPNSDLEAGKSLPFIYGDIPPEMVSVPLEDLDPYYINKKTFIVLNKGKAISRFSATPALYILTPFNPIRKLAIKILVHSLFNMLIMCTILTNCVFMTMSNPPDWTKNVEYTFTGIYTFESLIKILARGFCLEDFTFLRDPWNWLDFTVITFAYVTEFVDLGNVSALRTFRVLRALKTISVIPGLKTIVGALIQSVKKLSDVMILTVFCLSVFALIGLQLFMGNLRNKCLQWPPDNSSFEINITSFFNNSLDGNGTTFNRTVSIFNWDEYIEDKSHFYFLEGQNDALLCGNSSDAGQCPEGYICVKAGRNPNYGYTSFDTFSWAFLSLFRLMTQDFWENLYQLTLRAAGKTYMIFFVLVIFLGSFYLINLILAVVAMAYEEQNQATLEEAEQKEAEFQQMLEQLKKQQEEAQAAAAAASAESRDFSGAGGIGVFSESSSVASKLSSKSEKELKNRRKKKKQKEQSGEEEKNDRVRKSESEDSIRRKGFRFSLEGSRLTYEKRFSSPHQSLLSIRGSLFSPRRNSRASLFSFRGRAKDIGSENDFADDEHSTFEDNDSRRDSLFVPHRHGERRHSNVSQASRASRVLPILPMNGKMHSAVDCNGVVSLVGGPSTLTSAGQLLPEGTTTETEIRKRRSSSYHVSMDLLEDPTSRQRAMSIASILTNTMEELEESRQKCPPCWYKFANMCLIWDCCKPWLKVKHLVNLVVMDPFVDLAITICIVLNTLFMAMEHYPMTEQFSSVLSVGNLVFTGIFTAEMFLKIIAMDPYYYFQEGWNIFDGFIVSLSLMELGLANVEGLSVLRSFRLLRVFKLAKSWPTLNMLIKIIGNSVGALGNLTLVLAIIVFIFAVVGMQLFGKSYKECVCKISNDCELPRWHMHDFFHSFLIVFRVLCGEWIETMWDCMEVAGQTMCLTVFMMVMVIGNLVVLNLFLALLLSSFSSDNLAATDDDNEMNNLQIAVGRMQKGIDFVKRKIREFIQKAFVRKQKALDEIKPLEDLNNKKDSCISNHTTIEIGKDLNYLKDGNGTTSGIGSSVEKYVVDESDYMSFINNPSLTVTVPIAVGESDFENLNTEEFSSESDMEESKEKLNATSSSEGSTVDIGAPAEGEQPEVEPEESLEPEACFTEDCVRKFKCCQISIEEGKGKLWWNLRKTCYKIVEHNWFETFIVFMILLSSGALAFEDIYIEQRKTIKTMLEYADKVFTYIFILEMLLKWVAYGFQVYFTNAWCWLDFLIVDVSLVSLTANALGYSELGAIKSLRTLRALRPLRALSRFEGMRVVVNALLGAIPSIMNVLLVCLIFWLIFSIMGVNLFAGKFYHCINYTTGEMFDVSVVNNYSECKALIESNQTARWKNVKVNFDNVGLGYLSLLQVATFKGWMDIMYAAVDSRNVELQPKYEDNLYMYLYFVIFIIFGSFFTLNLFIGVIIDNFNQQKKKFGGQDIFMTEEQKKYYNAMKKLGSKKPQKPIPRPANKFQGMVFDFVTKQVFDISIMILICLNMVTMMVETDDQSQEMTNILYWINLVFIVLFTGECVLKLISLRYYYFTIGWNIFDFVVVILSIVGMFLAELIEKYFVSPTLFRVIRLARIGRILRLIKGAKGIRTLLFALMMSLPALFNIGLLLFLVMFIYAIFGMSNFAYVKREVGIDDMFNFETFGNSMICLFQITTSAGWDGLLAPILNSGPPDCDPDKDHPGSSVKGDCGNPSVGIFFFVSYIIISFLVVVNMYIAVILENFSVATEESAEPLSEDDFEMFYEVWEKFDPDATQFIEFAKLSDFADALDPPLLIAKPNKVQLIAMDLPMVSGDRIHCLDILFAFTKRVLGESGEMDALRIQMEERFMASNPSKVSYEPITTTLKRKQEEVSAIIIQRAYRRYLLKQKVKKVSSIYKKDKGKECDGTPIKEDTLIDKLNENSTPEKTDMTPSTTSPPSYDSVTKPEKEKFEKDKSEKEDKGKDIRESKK

[6] = Toxicity in rat assessed as phospholipidosis measured after 10 days; settings: 240 h, time 10 day
[7] = Drug concentration in plasma of monoiodoacetate-induced Sprague-Dawley rat model of osteoarthritis at 10 mg/kg, po administered for 5 days and measured after 15 mins; type: ADME, organism-based; settings: time 5 day
[8] = Drug concentration in plasma of monoiodoacetate-induced Sprague-Dawley rat model of osteoarthritis at 3 mg/kg, po administered for 5 days and measured after 15 mins; type: ADME, organism-based; settings: time 5 day
[9] = Drug concentration in plasma of monoiodoacetate-induced Sprague-Dawley rat model of osteoarthritis at 30 mg/kg, po administered for 5 days and measured after 15 mins; type: ADME, organism-based; settings: time 5 day
[10] = Drug concentration in brain of monoiodoacetate-induced Sprague-Dawley rat model of osteoarthritis at 10 mg/kg, po administered for 5 days and measured after 15 mins; type: ADME, organism-based; settings: time 5 day, read-out: Ct
in vivo [11] = settings: Sprague-Dawley, rat, po
[12] = Drug concentration in brain of monoiodoacetate-induced Sprague-Dawley rat model of osteoarthritis at 3 mg/kg, po administered for 5 days and measured after 15 mins; type: ADME, organism-based; settings: time 5 day, read-out: Ct
physchem [13] = settings: phosphate buffer
in vivo [14] = settings: Sprague-Dawley, rat, po; remark: listed apart in the source
[15] = Ratio of free drug concentration in brain to plasma of rat; type: ADME, cell-free; settings: brain and plasma
[16] = rat, in vivo, po
[17] = Toxicity in rat assessed as phospholipidosis measured after 5 days; settings: 120 h, time 5 day
in vitro = settings: PAMPA
[18] = Cardiotoxicity in conscious dog CV model assessed as effect on QT interval upto 5.5 microg/ml by ECG analysis; type: toxicity, Canis lupus familiaris; settings: dose < 5.5 µg/ml
[19] = Cardiotoxicity in conscious dog CV model assessed as effect on mean arterial pressure upto […] microg/ml […]; type: toxicity, Canis lupus familiaris; settings: dose < 5.5 µg/ml
Rattus norvegicus [20] = organism: Rattus norvegicus; assay: animal or person; settings: Sprague-Dawley; remark: listed apart in the source
[21] = Cardiotoxicity in conscious dog CV model assessed as effect on heart rate upto […] microg/ml by ECG analysis; type: toxicity, Canis lupus familiaris; settings: dose < 5.5 µg/ml
Rattus norvegicus [22] = organism: Rattus norvegicus; assay: animal or person; settings: Sprague-Dawley; remark: listed apart in the source
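For logD in this document: distribution coefficient quantified using high-throughput LC-MS.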
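For solubility in this document: determined using a high-throughput solubility method.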

| Compound | logD (physchem [2]) | IC50 [5] | concentration at 120 h [7] | concentration at 120 h [8] | concentration at 120 h [9] | half-life (in vivo [11]) | solubility (physchem [13]) | bioavailability (in vivo [14]) | Kp uu [15] | Vdss [16] | Papp (in vitro) | further results |
| --- | --- | --- | --- | --- | --- | --- | --- | --- | --- | --- | --- | --- |
| O=C(c1ccc2cc(Oc3ccc(C(F)F)cn3)ccc2n1)N1CCNCC1 | 2.4 | 12.8 µM | 4170 ng/mL | 1000 ng/mL | 9110 ng/mL | 3.38 h | 150 µM (≈ 57.7 µg/mL) | 96% | 0.14 | 5.42 L/kg | 3.3 ×10⁻⁶ cm/s | EC50 (Rattus norvegicus [1]): 0.45 µg/mL (≈ 1.17 µM); IC50 [3]: 29.5 µM; concentration at 120 h [4]: 1560 ng/mL; Activity [6]: Toxic; concentration at 120 h [10]: 720 ng/mL; concentration at 120 h [12]: 200 ng/mL; Activity [17]: Non-Toxic |
| O=C(c1ccc2cc(Oc3ccc(C(F)(F)F)cn3)ccc2n1)N1CCNCC1 | 3.1 | 6.6 µM | 510 ng/mL | 160 ng/mL | 1060 ng/mL | 12.8 h | 200 µM (≈ 80.5 µg/mL) | 98% | 0.08 | 11.5 L/kg | 4.7 ×10⁻⁶ cm/s | Activity [18]: Non-Toxic; Activity [19]: Non-Toxic; EC50 (Rattus norvegicus [20]): 0.04 µg/mL (≈ 0.0994 µM); Activity [21]: Non-Toxic; EC50 (Rattus norvegicus [22]): 0.17 µg/mL (≈ 0.422 µM) |
